From patent US10953027B2, “Active agents and methods of their use for the treatment of metabolic disorders and nonalcoholic fatty liver disease” (Flagship Pioneering Innovations V, Inc., priority 2018, dated 2021)

How the values were obtained:
Format in all cases: in vitro ADME
[1] = Assay 2. Stability in Simulated Intestinal Fluid (SIF); conditions: 1 μM, 37° C., SIF pH 6.7 with pancreatin
Summary of the method: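 Acylated compounds at 1 μM (from 1 mM DMSO stock) in fresh SIF: FaSSIF with pancreatin in pH 6.7 phosphate buffer, agitated at 37 °C. Aliquots from T0 onward quenched with 1 volume acetonitrile; LC/MS gives degradation rates.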

[2] = Assay 1. Stability in Simulated Gastric Fluid (SGF); conditions: 1 μM, 37° C., SGF pH 1.6 with pepsin
Summary of the method: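 Acylated compounds at a final 1 μM (diluted from 1 mM DMSO stock) were incubated at 37 °C in SGF of pH 1.6 NaCl buffer with FaSSIF powder and 0.1 mg/mL pepsin. Aliquots were quenched with acetonitrile at T0 and regular intervals, and degradation rates were determined by LC/MS.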

[3] = Assay 3. Fecal Incubation Stability; conditions: 1 or 10 μM, human fecal slurry, anaerobic
Protocol: Assay 3. Fecal Incubation Stability. This assay was used to assess the stability of an acylated active agent in a large intestine. All experiments were performed in an anaerobic chamber containing 90% nitrogen, 5% hydrogen and 5% carbon dioxide. Human fecal matter in a slurry (15% WV) is added to 96 well plates containing YCFA media or other suitable media (1.6 mL). Compounds were added to each individual well to reach a final analyte concentration of 1 or 10 μM, and the material was mixed by pipetting. At set time points a sample was removed, quenched with acetonitrile, and analyzed by LC/MS.

## O=C(CCc1c[nH]c2ccccc12)O[C@@H]1OC[C@H](OC(=O)CCc2c[nH]c3ccccc23)[C@H](OC(=O)CCc2c[nH]c3ccccc23)[C@H]1OC(=O)CCc1c[nH]c2ccccc12 [Compound 102, (2S,3R,4S,5S)-3,4,5-tris({[3-(1H-indol-3-yl)propanoyl]oxy})oxan-2-yl 3-(1H-indol-3-yl)propanoate]
[1]
  Assay 2 (SIF) (% @ Remaining 4 hours): A (A: <25% of the tested compound remaining)
[2]
  Assay 1 (SGF) (% Remaining @ 1 hours): B (B: 25-75% of the tested compound remaining)
[3]
  Assay 3 (% Remaining at 24 h): A (A: <25% of the tested compound remaining)

## CCCC(=O)O[C@@H]1[C@@H](OC(=O)CCC)[C@@H](OC)OC[C@H]1OC(=O)CCC [Compound 104, (2S,3R,4S,5R)-4,5-bis(butanoyloxy)-2-methoxyoxan-3-yl Butanoate]
[1]
  Assay 2 (SIF) (% @ Remaining 4 hours): A (A: <25% of the tested compound remaining)
[2]
  Assay 1 (SGF) (% Remaining @ 1 hours): B (B: 25-75% of the tested compound remaining)
[3]
  Assay 3 (% Remaining at 24 h): A (A: <25% of the tested compound remaining)

## CCC(=O)O[C@@H]1[C@@H](OC(=O)CC)[C@@H](OC)OC[C@H]1OC(=O)CC [Compound 105, (2S,3R,4S,5R)-2-methoxy-4,5-bis(propanoyloxy)oxan-3-yl Propanoate]
[1]
  Assay 2 (SIF) (% @ Remaining 4 hours): B (B: 25-75% of the tested compound remaining)
[2]
  Assay 1 (SGF) (% Remaining @ 1 hours): C (C: >75% of the tested compound remaining)
[3]
  Assay 3 (% Remaining at 24 h): A (A: <25% of the tested compound remaining)

## CCC(=O)O[C@@H]1[C@@H](OC(=O)CC)[C@H](OC)OC[C@H]1OC(=O)CC [Compound 106, (2R,3R,4S,5R)-2-methoxy-4,5-bis(propanoyloxyoxan-3-yl Propanoate]
[1]
  Assay 2 (SIF) (% @ Remaining 4 hours): A (A: <25% of the tested compound remaining)
[2]
  Assay 1 (SGF) (% Remaining @ 1 hours): C (C: >75% of the tested compound remaining)
[3]
  Assay 3 (% Remaining at 24 h): A (A: <25% of the tested compound remaining)

## CCC(=O)O[C@@H]1[C@@H](OC(=O)CC)[C@H](OC(=O)CCc2c[nH]c3ccccc23)OC[C@@H]1OC(=O)CC [Compound 107, (2S,3R,4S,5S)-3,4,5-tris(propanoyloxy)oxan-2-yl 3-(1H-indol-3-yl)propanoate]
[1]
  Assay 2 (SIF) (% @ Remaining 4 hours): A (A: <25% of the tested compound remaining)
[2]
  Assay 1 (SGF) (% Remaining @ 1 hours): C (C: >75% of the tested compound remaining)
[3]
  Assay 3 (% Remaining at 24 h): A (A: <25% of the tested compound remaining)

## CCC(=O)O[C@@H]1[C@@H](OC(=O)CC)[C@H](OC(=O)Cc2c[nH]c3ccccc23)OC[C@H]1OC(=O)CC [Compound 109, (2S,3R,4S,5R)-2-{[2-(1H-indol-3-yl)acetyl]oxy}-4,5-bis(propanoyloxy)oxan-3-yl Propanoate]
[1]
  Assay 2 (SIF) (% @ Remaining 4 hours): A (A: <25% of the tested compound remaining)
[2]
  Assay 1 (SGF) (% Remaining @ 1 hours): C (C: >75% of the tested compound remaining)
[3]
  Assay 3 (% Remaining at 24 h): A (A: <25% of the tested compound remaining)

## CCC(=O)O[C@H]1[C@H](OC(=O)CC)[C@@H](OC(=O)CCc2c[nH]c3ccccc23)O[C@@H](C)[C@H]1OC(=O)CC [Compound 110, (2R,3S,4R,5R,6S)-6-methyl-3,4,5-tris(propanoyloxy)oxan-2-yl 3-(1H-indol-3-yl)propanoate]
[1]
  Assay 2 (SIF) (% @ Remaining 4 hours): C (C: >75% of the tested compound remaining)
[2]
  Assay 1 (SGF) (% Remaining @ 1 hours): C (C: >75% of the tested compound remaining)
[3]
  Assay 3 (% Remaining at 24 h): A (A: <25% of the tested compound remaining)

## CCC(=O)O[C@@H]1O[C@@H](C)[C@H](OC(=O)CC)[C@@H](OC(=O)CC)[C@H]1OC(=O)CC [Compound 111, (2S,3R,4R,5S,6S)-6-methyl-3,4,5-tris(propanoyloxy)oxan-2-yl propanoate]
[1]
  Assay 2 (SIF) (% @ Remaining 4 hours): A (A: <25% of the tested compound remaining)
[2]
  Assay 1 (SGF) (% Remaining @ 1 hours): B (B: 25-75% of the tested compound remaining)
[3]
  Assay 3 (% Remaining at 24 h): A (A: <25% of the tested compound remaining)

## O=C(CCc1c[nH]c2ccccc12)O[C@@H]1OC[C@@H](OC(=O)CCc2c[nH]c3ccccc23)[C@@H](OC(=O)CCc2c[nH]c3ccccc23)[C@H]1OC(=O)CCc1c[nH]c2ccccc12 [Compound 113, (2S,3R,4R,5R)-3,4,5-tris({[3-(1H-indol-3-yl)propanoyl]oxy})oxan-2-yl 3-(1H-indol-3-yl)propanoate]
[1]
  Assay 2 (SIF) (% @ Remaining 4 hours): A (A: <25% of the tested compound remaining)
[2]
  Assay 1 (SGF) (% Remaining @ 1 hours): C (C: >75% of the tested compound remaining)
[3]
  Assay 3 (% Remaining at 24 h): A (A: <25% of the tested compound remaining)

## CCCC(=O)O[C@@H]1[C@@H](OC(=O)CCC)[C@H](C)O[C@@H](OC(=O)CCc2c[nH]c3ccccc23)[C@@H]1OC(=O)CCC [Compound 116, (2S,3R,4R,5S,6S)-4,5-bis(butanoyloxy)-2-{[3-(1H-indol-3-yl)propanoyl]oxy}-6-methyloxan-3-yl Butanoate]
[1]
  Assay 2 (SIF) (% @ Remaining 4 hours): A (A: <25% of the tested compound remaining)
[2]
  Assay 1 (SGF) (% Remaining @ 1 hours): C (C: >75% of the tested compound remaining)
[3]
  Assay 3 (% Remaining at 24 h): A (A: <25% of the tested compound remaining)

## CCCC(=O)O[C@H]1[C@H](OC(=O)CCC)[C@H](OC(=O)CCc2c[nH]c3ccccc23)O[C@@H](C)[C@H]1OC(=O)CCC [Compound 117, (2S,3S,4R,5R,6S)-4,5-bis(butanoyloxy)-2-{[3-(1H-indol-3-yl)propanoyl]oxy}-6-methyloxan-3-yl Butanoate]
[1]
  Assay 2 (SIF) (% @ Remaining 4 hours): A (A: <25% of the tested compound remaining)
[2]
  Assay 1 (SGF) (% Remaining @ 1 hours): C (C: >75% of the tested compound remaining)
[3]
  Assay 3 (% Remaining at 24 h): A (A: <25% of the tested compound remaining)

## CCCC(=O)OC[C@H]1O[C@@H](OC(=O)CCc2c[nH]c3ccccc23)[C@H](OC(=O)CCC)[C@@H](OC(=O)CCC)[C@@H]1OC(=O)CCC [Compound 118, [(2R,3R,4S,5R,6S)-3,4,5-tris(butanoyloxy)-6-{[3-(1H-indol-3-yl)propanoyl]oxy}oxan-2-yl]methyl Butanoate]
[1]
  Assay 2 (SIF) (% @ Remaining 4 hours): A (A: <25% of the tested compound remaining)
[2]
  Assay 1 (SGF) (% Remaining @ 1 hours): B (B: 25-75% of the tested compound remaining)
[3]
  Assay 3 (% Remaining at 24 h): A (A: <25% of the tested compound remaining)

## CCCC(=O)OC[C@H]1O[C@H](OC(=O)CCc2c[nH]c3ccccc23)[C@H](OC(=O)CCC)[C@@H](OC(=O)CCC)[C@@H]1OC(=O)CCC [Compound 122, [(2R,3R,4S,5R,6R)-3,4,5-tris(butanoyloxy)-6-{[3-(1H-indol-3-yl)propanoyl]oxy}oxan-2-yl]methyl Butanoate]
[1]
  Assay 2 (SIF) (% @ Remaining 4 hours): B (B: 25-75% of the tested compound remaining)
[2]
  Assay 1 (SGF) (% Remaining @ 1 hours): C (C: >75% of the tested compound remaining)
[3]
  Assay 3 (% Remaining at 24 h): A (A: <25% of the tested compound remaining)

## CCC(=O)O[C@@H]1[C@@H](OC(=O)CC)[C@H](OC(=O)/C=C/c2c[nH]c3ccccc23)OC[C@H]1OC(=O)CC [Compound 123, (2S,3R,4S,5R)-3,4,5-tris(propanoyloxy)oxan-2-yl (2E)-3-(1H-indol-3-yl)prop-2-enoate]
[1]
  Assay 2 (SIF) (% @ Remaining 4 hours): A (A: <25% of the tested compound remaining)
[2]
  Assay 1 (SGF) (% Remaining @ 1 hours): C (C: >75% of the tested compound remaining)
[3]
  Assay 3 (% Remaining at 24 h): A (A: <25% of the tested compound remaining)

## CCC(=O)O[C@H]1[C@H](OC(=O)/C=C/c2c[nH]c3ccccc23)OC[C@@H](OC(=O)CC)[C@H]1OC(=O)CC [Compound 124, (2S,3R,4R,5R)-3,4,5-tris(propanoyloxy)oxan-2-yl (2E)-3-(1H-indol-3-yl)prop-2-enoate]
[1]
  Assay 2 (SIF) (% @ Remaining 4 hours): A (A: <25% of the tested compound remaining)
[2]
  Assay 1 (SGF) (% Remaining @ 1 hours): C (C: >75% of the tested compound remaining)
[3]
  Assay 3 (% Remaining at 24 h): A (A: <25% of the tested compound remaining)

## CCC(=O)O[C@@H]1[C@@H](OC(=O)CC)[C@@H](OC(=O)/C=C/c2c[nH]c3ccccc23)OC[C@H]1OC(=O)CC [Compound 125, (2R,3R,4S,5R)-3,4,5-tris(propanoyloxy)oxan-2-yl (2E)-3-(1H-indol-3-yl)prop-2-enoate]
[1]
  Assay 2 (SIF) (% @ Remaining 4 hours): A (A: <25% of the tested compound remaining)
[2]
  Assay 1 (SGF) (% Remaining @ 1 hours): C (C: >75% of the tested compound remaining)
[3]
  Assay 3 (% Remaining at 24 h): A (A: <25% of the tested compound remaining)

## CCC(=O)O[C@H]1[C@@H](OC(=O)CCc2c[nH]c3ccccc23)OC[C@@H](OC(=O)CC)[C@H]1OC(=O)CC [Compound 126, (2R,3R,4R,5R)-3,4,5-tris(propanoyloxy)oxan-2-yl 3-(1H-indol-3-yl)propanoate]
[1]
  Assay 2 (SIF) (% @ Remaining 4 hours): A (A: <25% of the tested compound remaining)
[2]
  Assay 1 (SGF) (% Remaining @ 1 hours): C (C: >75% of the tested compound remaining)
[3]
  Assay 3 (% Remaining at 24 h): A (A: <25% of the tested compound remaining)

## CCCC(=O)O[C@@H]1[C@@H](OC(=O)CCC)[C@@H](OC(=O)CCc2c[nH]c3ccccc23)OC[C@H]1OC(=O)CCC [Compound 128, (2R,3R,4S,5R)-4,5-bis(butanoyloxy)-2-{[3-(1H-indol-3-yl)propanoyl]oxy}oxan-3-yl Butanoate]
[1]
  Assay 2 (SIF) (% @ Remaining 4 hours): A (A: <25% of the tested compound remaining)
[2]
  Assay 1 (SGF) (% Remaining @ 1 hours): C (C: >75% of the tested compound remaining)
[3]
  Assay 3 (% Remaining at 24 h): A (A: <25% of the tested compound remaining)
